The text below walks through data of patent publication US4508648A, “Phosphoric ester of antibiotic OA-6129” (Sanraku-Ocean Co., Ltd., priority 1981, dated 1985).

≈ marks a conversion by molar mass, not a printed value.

Data set [1] is described as follows: Relative stability in phosphate buffer, pH 7.0 (control). It counts as physicochemical. The following applies: 37° C., 60 minutes, drug solution 100-300 μg/ml, read-out: Relative stability: drug remaining as a percentage of initial concentration. As for the experimental part: (§1) *A drug solution (100-300 μg/ml) (0.1 ml) and a kidney homogenate (0.1
(§2) ml) were allowed to react at 37° C. for 60 minutes and the mixture
(§3) was immediately heattreated at 100° C. for 15 seconds. After
(§4) centrifugation, the concentration of the drug remaining in the supernatan
(§5) solution was bioassayed as a percentage of initial concentration by
(§6) Comamonas terrigena B996.
(§7) An overnight culture of Comamonas terrigena B-996 on a nutrient agar slant was suspended in nutrient broth to give a cell suspension of absorbance 0.04 at 610 nm. One percent of the cell suspension in volume was inoculated into molten agar medium containing 0.8% in weight of Kyokuto powdered bouillon (Kyokuto Pharmaceutical Co.) and 1.0% in weight of Bato-agar (Difco Lab.), and 7 ml each of the inoculated agar medium was poured into a 9 cm petri dish to make a Comamonas assay plate.

Data set [2] in a line: Relative stability in kidney homogenate of dog. It counts as in vitro ADME. The following applies: 37° C., 60 minutes, drug solution 100-300 μg/ml, read-out: Relative stability: drug remaining as a percentage of initial concentration. Here is the method:
as §1, §2, §3, §4, §5, §6, §7

Data set [3] is described as follows: Relative stability in kidney homogenate of man. In kind it is in vitro ADME. The note with it: human (man) kidney homogenate; 37° C., 60 minutes; drug solution 100-300 μg/ml; read-out: Relative stability: drug remaining as a percentage of initial concentration. Here is the method: as §1, §2, §3, §4, §5, §6, §7
Data set [4] is described as follows: Relative stability in kidney homogenate of mouse. It counts as in vitro ADME. The note with it: 37° C., 60 minutes, drug solution 100-300 μg/ml, read-out: Relative stability: drug remaining as a percentage of initial concentration. Here is the method: as §1, §2, §3, §4, §5, §6, §7
The test system of data set [5] is Pseudomonas aeruginosa IFO 3445. Kind of data set: Minimum inhibitory concentration, agar dilution technique. In kind it is cell-based. The note with it: IFO3445, beta-lactam-resistant strain, heart infusion agar, inoculum 10^6 cells/ml, read-out: Minimum Inhibitory Concentration (M.I.C.). An excerpt: (§8) Minimum Inhibitory Concentration (M.I.C. in μg/ml)**
(§9) *Beta-lactam-resistant strain.
(§10) **Medium heartinfusion agar (Difco Lab.); inoculum size 10^6 cells/ml
(§11) determined by the agar dilution technique

The subject of data set [6] is Citrobacter freundii GN346. Described as above. In kind it is cell-based. The following applies: beta-lactam-resistant strain, heart infusion agar, inoculum 10^6 cells/ml, read-out: Minimum Inhibitory Concentration (M.I.C.).
Source text: as §8, §9, §10, §11

A further data set has as its system Escherichia coli RGN823. The description is as above. The note with it: RGN823, read-out: Minimum Inhibitory Concentration (M.I.C.). In kind it is cell-based.
Source text: as §8, §9, §10, §11

For a further data set, the system named is Serratia marcescens S-18. Described as above. In kind it is cell-based. The note with it: S18, beta-lactam-resistant strain, heart infusion agar, inoculum 10^6 cells/ml, read-out: Minimum Inhibitory Concentration (M.I.C.).
Source text: as §8, §9, §10, §11

The subject of data set [7] is Klebsiella pneumoniae K13. The data set is described as above. In kind it is cell-based. The following applies: K13, beta-lactam-resistant strain, heart infusion agar, inoculum 10^6 cells/ml, read-out: Minimum Inhibitory Concentration (M.I.C.).
Source text: as §8, §9, §10, §11

In another data set the test system is Enterobacter cloacae 45. The data set is described as above. In kind it is cell-based. The note with it: beta-lactam-resistant strain, heart infusion agar, inoculum 10^6 cells/ml, read-out: Minimum Inhibitory Concentration (M.I.C.).
Source text: as §8, §9, §10, §11

In data set [8] the test system is Enterobacter aerogenes E-19. Described as above. In kind it is cell-based. The following applies: Klebsiella aerogenes, E19; beta-lactam-resistant strain; heart infusion agar; inoculum 10^6 cells/ml; read-out: Minimum Inhibitory Concentration (M.I.C.).
Source text: as §8, §9, §10, §11

In another data set the test system is Proteus sp. P-22. The description is as above. It counts as cell-based. The note with it: beta-lactam-resistant strain; heart infusion agar; inoculum 10^6 cells/ml; read-out: Minimum Inhibitory Concentration (M.I.C.).
Source text: as §8, §9, §10, §11

The test system of a further data set is Serratia marcescens T55. The description is as above. It counts as cell-based. The note with it: beta-lactam-resistant strain, heart infusion agar, inoculum 10^6 cells/ml, read-out: Minimum Inhibitory Concentration (M.I.C.).
Source text: as §8, §9, §10, §11

For data set [9], the system named is Pseudomonas aeruginosa NCTC 10490. The data set is described as above. In kind it is cell-based. The note with it: NCTC10490, beta-lactam-resistant strain, heart infusion agar, inoculum 10^6 cells/ml, read-out: Minimum Inhibitory Concentration (M.I.C.).
Source text: as §8, §9, §10, §11

The test system of another data set is Proteus vulgaris GN76. The description is as above. It counts as cell-based. The following applies: beta-lactam-resistant strain, heart infusion agar, inoculum 10^6 cells/ml, read-out: Minimum Inhibitory Concentration (M.I.C.).
Source text: as §8, §9, §10, §11

Data set [10] deals with Bacillus subtilis ATCC 6633. The data set is described as above. In kind it is cell-based. The following applies: ATCC6633, heart infusion agar, inoculum 10^6 cells/ml, read-out: Minimum Inhibitory Concentration (M.I.C.).
Source text: as §8, §10, §11

Another data set relates to Sarcina lutea. Described as above. The following applies: Micrococcus luteus; heart infusion agar; inoculum 10^6 cells/ml; read-out: Minimum Inhibitory Concentration (M.I.C.). In kind it is cell-based.
Source text: as §8, §10, §11

In a further data set the test system is Providencia sp. P-8. The description is as above. It counts as cell-based. The note with it: SP.P8, read-out: Minimum Inhibitory Concentration (M.I.C.).
Source text: as §8, §10, §11

A further data set deals with Alcaligenes faecalis A1. Described as above. It counts as cell-based. The following applies: heart infusion agar, inoculum 10^6 cells/ml, read-out: Minimum Inhibitory Concentration (M.I.C.).
Source text: as §8, §10, §11

A further data set relates to Proteus mirabilis P-6. The description is as above. It counts as cell-based. The note with it: P6, heart infusion agar, inoculum 10^6 cells/ml, read-out: Minimum Inhibitory Concentration (M.I.C.).
Source text: as §8, §10, §11

The subject of data set [11] is Staphylococcus aureus 209P. The data set is described as above. It counts as cell-based. The following applies: heart infusion agar, inoculum 10^6 cells/ml, read-out: Minimum Inhibitory Concentration (M.I.C.).
Source text: as §8, §10, §11

Data set [12] concerns Staphylococcus aureus Smith. The description is as above. In kind it is cell-based. The note with it: heart infusion agar, inoculum 10^6 cells/ml, read-out: Minimum Inhibitory Concentration (M.I.C.).
Source text: as §8, §10, §11

The test system of data set [13] is Staphylococcus epidermidis. The data set is described as above. It counts as cell-based. The following applies: heart infusion agar, inoculum 10^6 cells/ml, read-out: Minimum Inhibitory Concentration (M.I.C.).
Source text: as §8, §10, §11

Data set [14] concerns Staphylococcus aureus Russell. Described as above. In kind it is cell-based. The following applies: heart infusion agar, inoculum 10^6 cells/ml, read-out: Minimum Inhibitory Concentration (M.I.C.).
Source text: as §8, §10, §11

The subject of data set [15] is Comamonas terrigena B-996. The description is as above. It counts as cell-based. The note with it: B996, heart infusion agar, inoculum 10^6 cells/ml, read-out: Minimum Inhibitory Concentration (M.I.C.).
Source text: as §8, §10, §11

In the next data set the test system is Enterobacter sp. E-8. Described as above. In kind it is cell-based. The note with it: SP.E8, heart infusion agar, inoculum 10^6 cells/ml, read-out: Minimum Inhibitory Concentration (M.I.C.).
Source text: as §8, §10, §11

For a further data set, the system named is Proteus rettgeri P-6. The description is as above. In kind it is cell-based. The following applies: Providencia rettgeri, P6; heart infusion agar; inoculum 10^6 cells/ml; read-out: Minimum Inhibitory Concentration (M.I.C.).
Source text: as §8, §10, §11

The subject of the next data set is Escherichia coli K-12. The description is as above. The note with it: K12, heart infusion agar, inoculum 10^6 cells/ml, read-out: Minimum Inhibitory Concentration (M.I.C.). It counts as cell-based.
Source text: as §8, §10, §11

For `CC(O)C1C(=O)N2C(C(=O)O)=C(SCCNC(=O)CCNC(=O)C(O)C(C)(C)CO)CC12` (stereo not drawn) [Antibiotic OA-6129B], the remaining at 1 h was found to be 98% in data set [1], 20% in data set [2], 47% in [3] and 20% in data set [4].

On to `CCC1C(=O)N2C(C(=O)O)=C(SCCNC(C)=O)CC12` (stereo not drawn) [Antibiotic PS-5], for which the remaining at 1 h in data set [1] is 100%; in data set [2], 10%; in data set [3] it was 28%; in data set [4], 10%.

Regarding `CCC1C(=O)N2C(C(=O)O)=C(SCCNC(=O)CCNC(=O)C(O)C(C)(C)CO)CC12` (stereo not drawn) [Antibiotic OA-6129A], the remaining at 1 h in data set [1] was 100%; in [2], 25%; in data set [3] it was 57%; in [4] it was 7%. The MIC in [5] was over 100 mg/L; in [6], 50 mg/L (≈ 109 µM); in the data set on Escherichia coli RGN823, 12.5 mg/L (≈ 27.3 µM); with Serratia marcescens S-18, 100 mg/L (≈ 219 µM); in [7], 50 mg/L (≈ 109 µM); in the data set on Enterobacter cloacae 45 it was 50 mg/L (≈ 109 µM). In addition, the MIC in data set [8] is 25 mg/L (≈ 54.6 µM); in the data set with Proteus sp. P-22, 100 mg/L (≈ 219 µM); in the data set on Serratia marcescens T55, 100 mg/L (≈ 219 µM); in data set [9], over 100 mg/L; in the data set on Proteus vulgaris GN76, 100 mg/L (≈ 219 µM); in data set [10] it was 0.39 mg/L (≈ 0.852 µM). Besides, the MIC in the data set on Sarcina lutea is 6.25 mg/L (≈ 13.7 µM); in the data set on Providencia sp. P-8, 12.5 mg/L (≈ 27.3 µM); in the data set with Alcaligenes faecalis A1 it was 1.56 mg/L (≈ 3.41 µM); in the data set on Proteus mirabilis P-6 it was 50 mg/L (≈ 109 µM); in [11] it was 0.78 mg/L (≈ 1.7 µM); in data set [12], 1.56 mg/L (≈ 3.41 µM). Besides, the MIC in data set [13] was 1.56 mg/L (≈ 3.41 µM); in [14], 0.78 mg/L (≈ 1.7 µM); in data set [15], 0.05 mg/L (≈ 0.109 µM); in the data set with Enterobacter sp. E-8, 12.5 mg/L (≈ 27.3 µM); with Proteus rettgeri P-6, 25 mg/L (≈ 54.6 µM); in the data set with Escherichia coli K-12, 12.5 mg/L (≈ 27.3 µM).
